# Patent US9345703B2, “Kappa opioid receptor effectors and uses thereof” (University of Kansas, priority 2011, dated 2016)
# Legend:
# [1] = target: T1, KOR (Homo sapiens, UniProt P41145); assay: DISCOVERX β-arrestin […] assay, agonist mode (KOR DRx); assay type: cell-based; conditions: for EC50: agonist, n = 3, read-out: Average Potency KOR DRx; for Emax (%): at highest concentration tested, compared to dynorphin A (Emax=100%)
# Source text: (§1) In this campaign, two assay platforms were employed to evaluate KOR activity and selectivity: the KOR1 DISCOVERX β-Arrestin […] assay and an imaging based β-arrestin translocation assay for confirmatory and selectivity assays. The KOR1 DISCOVERX β-Arrestin […] assay is a commercial platform for direct measurement of GPCR (G protein-coupled receptor) activation by detection of β-Arrestin binding to the KOR. […] In cells that stably express these fusion proteins, ligand stimulation results in the recruitment of β-Arrestin by the GPCR. This interaction encourages the complementation of the two β-galactosidase fragments resulting in the formation of a functional enzyme that converts substrate in the assay medium to a detectable signal.
# [2] = target: T1, KOR; assay: High content imaging based β-arrestin translocation assay, KOR agonist (KOR HCS); assay type: cell-based; conditions: n = 2, read-out: Average Potency KOR HCS
# Source text: as §1, with “signal. The imaging based high-content β-arrestin translocation assay is based upon the redistribution of β-Arrestin linked to green fluorescent protein (GFP) to the cell surface and detection (Barak, et al. (1997) J. Biol. Chem. 272:27497-27500).” for “signal.”
# (§2) Initially, a portion (approximately 290,000 compounds) of the MLSMR compound collection was tested in the KOR1 DISCOVERX β-arrestin primary kappa opioid (KOP) agonist and antagonist screens (PUBCHEM AID 1777 and 1778, respectively) at a single concentration point (10 μM). […] These compounds were concurrently tested in a β-galactosidase counterscreen assay (PUBCHEM AID 1966) to assess the possibility that these compounds might inhibit the reporting enzyme. […] The KOR:DOR:MOR selectivity of the compounds was determined using the analogous β-arrestin translocation assays for the DOR (PUBCHEM AID 2370 and 2357, for agonists and antagonist, respectively) and the MOR (PUBCHEM AID 2352 and 2420, for agonists and antagonists, respectively).
# [3] = target: T2, MOR (Homo sapiens, UniProt P35372); assay: High content imaging based β-arrestin translocation assay, MOR agonist (MOR HCS); assay type: cell-based; conditions: n = 2, read-out: Average Potency MOR HCS
# T2 sequence (P35372 whole entry): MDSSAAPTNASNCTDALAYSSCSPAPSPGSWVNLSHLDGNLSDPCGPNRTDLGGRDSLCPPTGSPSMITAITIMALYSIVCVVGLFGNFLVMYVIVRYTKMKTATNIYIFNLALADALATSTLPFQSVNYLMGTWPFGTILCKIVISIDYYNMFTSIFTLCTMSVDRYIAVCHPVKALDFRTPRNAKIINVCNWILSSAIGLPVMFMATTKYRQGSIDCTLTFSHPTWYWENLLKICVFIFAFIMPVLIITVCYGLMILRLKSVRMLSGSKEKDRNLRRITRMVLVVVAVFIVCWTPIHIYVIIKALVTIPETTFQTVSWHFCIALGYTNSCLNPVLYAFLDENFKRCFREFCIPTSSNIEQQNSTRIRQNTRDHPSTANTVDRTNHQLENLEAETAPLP
# Source text: as §1, with “signal. The imaging based high-content β-arrestin translocation assay is based upon the redistribution of β-Arrestin linked to green fluorescent protein (GFP) to the cell surface and detection (Barak, et al. (1997) J. Biol. Chem. 272:27497-27500).” for “signal.”
# as §2
# [4] = target: T1, KOR; assay: Binding affinity Ki of Table 9
# [5] = target: T1, KOR; assay: KOR1 DISCOVERX β-Arrestin […] assay, antagonist mode (KOR DRX); assay type: cell-based
# Source text: as §1, with “signal. The imaging based high-content β-arrestin translocation assay is based upon the redistribution of β-Arrestin linked to green fluorescent protein (GFP) to the cell surface and detection (Barak, et al. (1997) J. Biol. Chem. 272:27497-27500).” for “signal.”
# as §2
# [6] = target: T1, KOR; assay: High content imaging β-arrestin translocation assay, KOR antagonist (KOR HCS); assay type: cell-based
# Source text: as §1, with “signal. The imaging based high-content β-arrestin translocation assay is based upon the redistribution of β-Arrestin linked to green fluorescent protein (GFP) to the cell surface and detection (Barak, et al. (1997) J. Biol. Chem. 272:27497-27500).” for “signal.”
# as §2
# [7] = target: T2, MOR; assay: High content imaging β-arrestin translocation assay, MOR antagonist (MOR HCS); assay type: cell-based; conditions: antagonist; average; read-out: Potency, Antitarget MOR HCS
# Source text: as §1, with “signal. The imaging based high-content β-arrestin translocation assay is based upon the redistribution of β-Arrestin linked to green fluorescent protein (GFP) to the cell surface and detection (Barak, et al. (1997) J. Biol. Chem. 272:27497-27500).” for “signal.”
# as §2
# [8] = target: DOR (Homo sapiens, UniProt P41143); assay: High content imaging β-arrestin translocation assay, DOR antagonist (DOR HCS); assay type: cell-based; conditions: antagonist; average; read-out: Potency, Antitarget DOR HCS
# DOR, sequence (P41143 whole entry): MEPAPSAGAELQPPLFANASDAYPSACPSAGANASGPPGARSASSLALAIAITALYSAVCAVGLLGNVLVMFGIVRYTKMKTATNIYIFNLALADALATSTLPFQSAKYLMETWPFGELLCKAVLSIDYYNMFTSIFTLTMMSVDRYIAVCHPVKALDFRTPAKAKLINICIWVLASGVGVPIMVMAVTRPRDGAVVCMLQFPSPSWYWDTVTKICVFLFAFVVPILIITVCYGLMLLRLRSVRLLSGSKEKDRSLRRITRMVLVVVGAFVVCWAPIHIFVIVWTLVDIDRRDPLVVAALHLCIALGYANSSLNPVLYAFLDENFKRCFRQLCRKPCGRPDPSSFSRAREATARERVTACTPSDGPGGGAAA
# Source text: as §1, with “signal. The imaging based high-content β-arrestin translocation assay is based upon the redistribution of β-Arrestin linked to green fluorescent protein (GFP) to the cell surface and detection (Barak, et al. (1997) J. Biol. Chem. 272:27497-27500).” for “signal.”
# as §2
# [9] = antagonist, average, read-out: Potency, Target KOR DRX
# [10] = antagonist, average, read-out: Potency, Target KOR HCS
# T1 sequence (P41145 whole entry, the tested form may be a part): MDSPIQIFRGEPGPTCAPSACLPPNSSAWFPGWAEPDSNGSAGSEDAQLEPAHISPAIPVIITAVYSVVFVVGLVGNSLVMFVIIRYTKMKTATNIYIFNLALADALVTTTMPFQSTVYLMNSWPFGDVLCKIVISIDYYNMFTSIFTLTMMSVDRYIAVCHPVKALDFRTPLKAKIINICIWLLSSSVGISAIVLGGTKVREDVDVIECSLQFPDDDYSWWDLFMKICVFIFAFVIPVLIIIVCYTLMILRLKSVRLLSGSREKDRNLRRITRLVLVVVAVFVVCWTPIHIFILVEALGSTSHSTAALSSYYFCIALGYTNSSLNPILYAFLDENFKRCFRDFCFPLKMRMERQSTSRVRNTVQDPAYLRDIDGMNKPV
IC50 [5] [µM],Structure (SMILES),EC50 [1] [µM],Emax (%) [1],EC50 [2] [µM],EC50 [3] [µM],Ki [4] [µM],"IC50 [5, 9] [µM]","IC50 [6, 10] [µM]",IC50 [7] [µM],IC50 [8] [µM],IC50 [6] [µM]
–,Fc1cc(F)cc(CSc2nnc(-c3ccccn3)n2Cc2cccs2)c1 [Compound 2{17}],7.2,~150%,> 17.8,> 32,0.094,–,–,–,–,–
–,c1ccc(CSc2nnc(-c3ccccn3)n2Cc2ccco2)cc1 [Compound 2{22}],> 17.9,Emax not reached,> 32,> 32,0.155,–,–,–,–,–
–,Cc1ccc(CSc2nnc(-c3ccccn3)n2Cc2ccco2)cc1 [Compound 2{12}],6.2 ± 1.26,~150%,5.21,> 32,0.016,–,–,–,–,–
–,Clc1ccccc1CSc1nnc(-c2ccccn2)n1Cc1ccco1 [Compound 2{47}],9.07,–,11.6,> 32,0.106,–,–,–,–,–
–,COc1ccc(N2CCN(CCCNC(=O)Cn3c(=O)c4cccn4c4cccnc43)CC2)c(OC)c1 [1{9}],–,–,–,–,–,2.65,0.49,10.8,> 32,–
–,O=C(Cn1c(=O)c2cccn2c2cccnc21)NCCCN1CCOCC1 [Compound 1{19}],–,–,–,–,–,> 20,> 32,> 32,> 32,–
–,O=C(Cn1c(=O)c2cccn2c2cccnc21)NCCCN1CCC(Cc2ccccc2)CC1 [Compound 1{22}],–,–,–,–,–,4.78,–,> 32,> 32,–
–,COc1ccc(N2CCN(CCCNC(=O)Cn3c(=O)c4cccn4c4cc(Br)cnc43)CC2)c(OC)c1 [1{16}],–,–,–,–,–,2.82,3.02,10.2,> 32,–
–,COc1ccc(N2CCN(CCCNC(=O)Cn3c(=O)c4cccn4c4c(C)ccnc43)CC2)c(OC)c1 [1{4}],–,–,–,–,–,0.19,0.004,30.9,> 32,–
–,O=C(Cn1c(=O)c2cccn2c2cccnc21)NCCCN1CCN(c2ccc(Cl)cc2)CC1 [Compound 1{11}],–,–,–,–,–,5.18,0.096,> 32,> 32,–
–,Cc1ccnc2c1n1cccc1c(=O)n2CC(=O)NCCCN1CCN(c2ccc3c(c2)OCO3)CC1 [1{5}],–,–,–,–,–,0.43,0.045,17.2,> 32,–
–,c1ccc(CSc2nnc(-c3ccccn3)n2Cc2cccs2)cc1 [Compound 2{23}],13.8 ± 1.18,~150%,23.5,> 32,0.138,–,–,–,–,–
–,O=C(Cn1c(=O)c2cccn2c2cccnc21)NCCCN1CCN(Cc2ccccc2)CC1 [Compound 1{23}],–,–,–,–,–,> 20,21.5,> 32,> 32,–
–,CC(C)c1ccc(CSc2nnc(-c3ccccn3)n2Cc2cccs2)cc1 [Compound 2{34}],3.66,~100%,2.2,> 32,0.0023,–,–,–,–,–
–,Cc1ccccc1CSc1nnc(-c2ccccn2)n1Cc1ccco1 [Compound 2{35}],> 18.8,–,> 30,> 32,0.123,–,–,–,–,–
–,O=C(Cn1c(=O)c2cccn2c2cc(Br)cnc21)NCCCN1CCN(c2ccc3c(c2)OCO3)CC1 [Compound 1{17}],–,–,–,–,–,3.11,0.15,> 32,> 32,–
–,Cc1ccnc2c1n1cccc1c(=O)n2CC(=O)NCCCN1CCN(c2ccccc2)CC1 [1{8}],–,–,–,–,–,4.95,2.56,22.5,> 32,–
–,O=C(Cn1c(=O)c2cccn2c2cccnc21)NCCCN1CCN(c2ccc3c(c2)OCO3)CC1 [Compound 1{10}],–,–,–,–,–,4.23,0.78,> 32,> 32,–
–,COc1cccc(CSc2nnc(-c3ccccn3)n2Cc2ccco2)c1 [Compound 2{37}],> 17.6,–,> 32,> 32,0.067,–,–,–,–,–

IC50 [5] [µM],Structure (SMILES),EC50 [1] [µM],Emax (%) [1],EC50 [2] [µM],EC50 [3] [µM],Ki [4] [µM],"IC50 [5, 9] [µM]","IC50 [6, 10] [µM]",IC50 [7] [µM],IC50 [8] [µM],IC50 [6] [µM]
–,Cc1ccccc1CSc1nnc(-c2ccccn2)n1Cc1cccs1 [Compound 2{36}],> 16,–,14.5,> 32,0.068,–,–,–,–,–
–,COc1ccc(CSc2nnc(-c3ccccn3)n2Cc2ccco2)cc1 [Compound 2{20}],7.7 ± 1.47,~150%,12.4,> 32,0.028,–,–,–,–,–
–,Cc1ccc(Cl)cc1N1CCN(CCCNC(=O)Cn2c(=O)c3cccn3c3cccnc32)CC1 [1{24}],–,–,–,–,–,> 20,> 32,3.98,> 32,–
–,Fc1cccc(F)c1CSc1nnc(-c2ccccn2)n1Cc1cccs1 [Compound 2{42}],> 19,–,20.9,> 32,0.078,–,–,–,–,–
–,COc1ccc(N2CCN(CCCNC(=O)Cn3c(=O)c4cccn4c4cc(Br)cnc43)CC2)cc1 [1{14}],–,–,–,–,–,3.05,0.69,10.3,> 32,–
–,FC(F)(F)c1cc(CSc2nnc(-c3ccccn3)n2Cc2cccs2)ccc1Cl [Compound 2{11}],0.43,~109%,1.4,> 32,0.003,–,–,–,–,–
–,Cc1ccc(N2CCN(CCCNC(=O)Cn3c(=O)c4cccn4c4c(C)ccnc43)CC2)cc1 [1{7}],–,–,–,–,–,0.88,2.28,> 32,> 32,–
–,COc1ccc(N2CCN(CCCNC(=O)Cn3c(=O)c4cccn4c4ccccc43)CC2)cc1 [1{2}],–,–,–,–,–,4.32,15.3,> 32,> 32,–
–,O=C(Cn1c(=O)c2cccn2c2cccnc21)NCCCN1CCCCC1 [Compound 1{21}],–,–,–,–,–,> 20,> 32,> 32,> 32,–
–,Cc1ccc(N2CCN(CCCNC(=O)Cn3c(=O)c4cccn4c4cccnc43)CC2)cc1 [1{12}],–,–,–,–,–,3.68,0.89,18.8,> 32,–
–,COc1ccc(CSc2nnc(-c3ccccn3)n2Cc2cccs2)cc1 [Compound 2{21}],9.62 ± 1.32,~130%,5.98,> 32,0.0071,–,–,–,–,–
–,O=C(Cn1c(=O)c2cccn2c2cc(Br)cnc21)NCCCN1CCN(c2ccc(Cl)cc2)CC1 [Compound 1{15}],–,–,–,–,–,> 20,> 32,5.32,> 32,–
–,Fc1cccc(F)c1CSc1nnc(-c2ccccn2)n1Cc1ccco1 [2{41}],> 20,–,> 32,> 32,0.055,–,–,–,–,–
–,O=C(Cn1c(=O)c2cccn2c2cccnc21)NCCCN1CCN(c2ccccc2)CC1 [Compound 1{13}],–,–,–,–,–,> 20,12.7,> 32,> 32,–
–,COc1ccc(N2CCN(CCCCNC(=O)Cn3c(=O)c4cccn4c4c(C)ccnc43)CC2)cc1 [1{27}],–,–,–,–,–,1.25,0.005,> 32,> 32,–
> 20,Cc1cccc(N2CCN(CCNC(=O)Cn3c(=O)c4cccn4c4cccnc43)CC2)c1C [1{25}],–,–,–,–,–,–,–,–,> 32,> 32
–,Cc1ccnc2c1n1cccc1c(=O)n2CC(=O)NCCCN1CCN(c2ccc(Cl)cc2)CC1 [Compound 1{6}],–,–,–,–,–,0.69,0.07,> 32,> 32,–
–,CN1CCN(CCCNC(=O)Cn2c(=O)c3cccn3c3cccnc32)CC1 [Compound 1{20}],–,–,–,–,–,> 20,> 32,> 32,> 32,–
–,COc1ccc(N2CCN(CCNC(=O)Cn3c(=O)c4cccn4c4c(C)ccnc43)CC2)cc1 [1{26}],–,–,–,–,–,–,–,> 32,> 32,> 32
